Test results published in patent publication US7208169B2, “Biphenyl carboxamides” (priority 2002, dated 2007).
Read-outs that look alike come from different tables or passages of the source.

What was measured:
Puccinia recondita = test: Puccinia test (wheat)/protective; format: in vivo; conditions: application rate 500 g/ha, protective, evaluation 10 days after inoculation
Description: Puccinia Test (Wheat)/Protective
• 25 parts by weight of N,N-dimethylacetamide Emulsifier: • 0.6 part by weight of alkylaryl polyglycol ether
(§1) To produce a suitable preparation of active compound, 1 part by weight of active compound is mixed with the stated amounts of solvent and emulsifier, and the concentrate is diluted with water to the desired concentration.
To test for protective activity, young plants are sprayed with the preparation of active compound at the stated application rate. After the spray coating has dried on, the plants are sprayed with a conidia suspension of Puccinia recondita. The plants remain in an incubation cabin at 20° C. and 100% relative atmospheric humidity for 48 hours.
The plants are then placed in a greenhouse at a temperature of about 20° C. and a relative atmospheric humidity of 80% to promote the development of rust pustules.
(§2) Evaluation is carried out 10 days after the inoculation. 0% means an efficacy which corresponds to that of the control, whereas an efficacy of 100% means that no infection is observed.

Podosphaera leucotricha = test: Podosphaera test (apple)/protective; format: in vivo; conditions: application rate 100 g/ha, protective, evaluation 10 days after inoculation
Description: Podosphaera Test (Apple)/Protective
(§3) • 24.5 parts by weight of acetone • 24.5 parts by weight of dimethylacetamide Emulsifier: • 1.0 part by weight of alkylaryl polyglycol ether
(§4) To produce a suitable preparation of active compound, 1 part by weight of active compound is mixed with the stated amounts of solvents and emulsifier, and the concentrate is diluted with water to the desired concentration.
(§5) To test for protective activity, young plants are sprayed with the preparation of active compound at the stated application rate. After the spray coating has dried on, the plants are inoculated with an aqueous spore suspension of the apple mildew pathogen Podosphaera leucotricha. The plants are then placed in a greenhouse at about 23° C. and a relative atmospheric humidity of about 70%.
as §2

Venturia inaequalis = test: Venturia test (apple)/protective; format: in vivo; conditions: application rate 100 g/ha, protective, evaluation 10 days after inoculation
Description: Venturia Test (Apple)/Protective
as §3, §4
To test for protective activity, young plants are sprayed with the preparation of active compound at the stated application rate. After the spray coating has dried on, the plants are inoculated with an aqueous conidia suspension of the apple scab pathogen Venturia inaequalis and then remain in an incubation cabin at about 20° C. in 100% relative atmospheric humidity for 1 day.
The plants are then placed in a greenhouse at about 21° C. and a relative atmospheric humidity of about 90%.
as §2

Coriolus versicolor = test: Inhibitory test using a giant colony of Basidiomycetes; format: cell-based; conditions: Trametes versicolor; 6 ppm active compound in nutrient agar; 26° C.; growth of fungal threads
Description: Inhibitory Test Using a Giant Colony of Basidiomycetes Mycelium pieces were punched out of a giant colony of the Basidiomycetes species Coriolus versicolor and incubated at 26° C. on a nutrient agar medium containing malt extract peptone. The inhibition of the growth of the fungal threads on active-compound-containing nutrient media was compared to the longitudinal growth on nutrient media without added active compound and rated as inhibition in percent. In this test, for example, the following compounds according to the invention of the Preparation Examples show good activity: […]

[1] = logP determination by HPLC on reversed-phase column (EEC Directive 79/831 Annex V.A8); format: physicochemical; conditions: pH 2.3, C18, 43° C., 0.1% aqueous phosphoric acid/acetonitrile, read-out: logP (pH2.3)
Description: The logP values given in the Preparation Examples were determined in accordance with EEC Directive 79/831 Annex V.A8 by HPLC (High Performance Liquid Chromatography) using a reversed-phase column (C 18). Temperature: 43° C.
Mobile phases for the determination in the acidic range: 0.1% aqueous phosphoric acid, acetonitrile; linear gradient from 10% acetonitrile to 90% acetonitrile.
Calibration was carried out using unbranched alkan-2-ones (having 3 to 16 carbon atoms) with known logP values (determination of the logP values by the retention times using linear interpolation between two successive alkanones).

Sphaerotheca fuliginea = test: Sphaerotheca test (cucumber)/protective; format: in vivo; conditions: Podosphaera fuliginea, 168 h, application rate 100 g/ha, protective, evaluation 7 days after inoculation, read-out: Efficacy in %
Description: Sphaerotheca Test (Cucumber)/Protective
as §3, §4
as §5, with “Sphaerotheca fuliginea.” for “the apple mildew pathogen Podosphaera leucotricha.”
(§6) Evaluation is carried out 7 days after the inoculation. 0% means an efficacy which corresponds to that of the control, whereas an efficacy of 100% means that no infection is observed.

Alternaria solani = test: Alternaria test (tomato)/protective; format: in vivo; conditions: application rate 750 g/ha, protective, evaluation 7 days after inoculation
Description: Alternaria Test (Tomato)/Protective
• 49 parts by weight of N,N-dimethylformamide Emulsifier: • 1 part by weight of alkylaryl polyglycol ether
as §1
To test for protective activity, young tomato plants are sprayed with the preparation of active compound at the stated application rate. 1 day after the treatment, the plants are inoculated with a spore suspension of Alternaria solani and then remain at 100% relative humidity and at 20° C. for 24 h. The plants then remain at 96% relative atmospheric humidity and a temperature of 20° C.
as §6

| SMILES | Efficacy in % (Puccinia recondita) [%] | Efficacy in % (Podosphaera leucotricha) [%] | Efficacy in % (Venturia inaequalis) [%] | inhibition at 6 ppm (Coriolus versicolor) [%] | chromatographic logP ([1]; reversed-phase C18 HPLC column) | pest or weed control at 100 g/ha (Sphaerotheca fuliginea) [%] | Efficacy in % (Alternaria solani) [%] | chromatographic logP [1] |
| --- | --- | --- | --- | --- | --- | --- | --- | --- |
| Cc1nn(C)c(F)c1C(=O)Nc1ccccc1-c1ccc2c(c1)OC(F)(F)C(F)(F)O2 [Example 1, 5-fluoro-1,3-dimethyl-N-[2-(2,2,3,3-tetrafluoro-2,3-dihydro-1,4-benzodioxin-6-yl)phenyl]-1H-pyrazole-4-carboxamide] | 100 | 100 | 100 | 100 | 3.77 | 98 |  |  |
| Cn1cc(C(=O)Nc2ccccc2-c2ccc3c(c2)OC(F)(F)O3)c(C(F)(F)F)n1 [Example 2, N-[2-(2,2-difluoro-1,3-benzodioxol-5-yl)-phenyl]-1-methyl-3-(trifluoromethyl)-1H-pyrazol-4-carboxamide] |  | 100 | 100 |  | 3.37 | 100 | 100 |  |
| O=C(Nc1ccccc1-c1ccc2c(c1)OC(F)(F)O2)c1ccccc1C(F)(F)F [Example 3] |  | 100 |  |  |  | 98 | 94 | 3.94 |
| Cc1ccsc1C(=O)Nc1ccccc1-c1ccc2c(c1)OC(F)(F)O2 [Example 4] |  |  | 98 |  | 3.99 | 100 |  |  |
| Cc1nc(C(F)(F)F)c(C(=O)Nc2ccccc2-c2ccc3c(c2)OC(F)(F)O3)s1 [Example 5] |  | 100 | 100 |  | 3.81 | 100 |  |  |
| O=C(Nc1ccccc1-c1ccc2c(c1)OC(F)(F)C(F)(F)O2)c1ccccc1C(F)(F)F [Example 6] |  | 100 | 99 |  |  | 100 |  | 5.93 |
| Cc1nc(C(F)(F)F)c(C(=O)Nc2ccccc2-c2ccc3c(c2)OC(F)(F)C(F)(F)O3)s1 [Example 10] |  | 100 | 100 |  | 3.94 | 100 |  |  |
| Cc1nn(C)c(F)c1C(=O)Nc1c(F)cc(F)cc1-c1ccc2c(c1)OCO2 [Example 15] |  |  |  |  | 2.34 |  | 95 |  |
| Cc1nn(C)c(F)c1C(=O)Nc1ccccc1-c1ccc2c(c1)OC(F)(F)O2 [Example 19] |  | 100 | 96 | 100 | 3.22 | 92 |  |  |
| Cn1cc(C(=O)Nc2ccccc2I)c(C(F)(F)F)n1 [Example (IV-1), N-(2-iodophenyl)-1-methyl-3-(trifluoromethyl)-1H-pyrazole-4-carboxamide] |  |  |  |  | 2.46 |  |  |  |
| OB(O)c1ccc2c(c1)OC(F)(F)C(F)(F)O2 [Example (V-1), 2,2,3,3-tetrafluoro-2,3-dihydro-1,4-benzodioxin-6-yl-boronic acid] |  |  |  |  | 2.49 |  |  |  |
